Converted amounts (≈) assume the structure as drawn. Read-outs that look alike come from different tables or passages of the source.
Legend:
[1] = tested on: Methicillin resistant Staphylococcus aureus (ATCC 33591); test: MIC by microbroth dilution, MRSA ATCC 33591; format: cell-based
In short: (§1)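 Broth microdilution per NCCLS/CLSI M07-08 (2011); MIC recorded as the lowest compound concentration inhibiting visible bacterial growth.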

[2] = tested on: E. coli (ATCC 25922); test: MIC by microbroth dilution, E. coli ATCC 25922; format: cell-based; details: Escherichia coli
In short: as §1

[3] = Single dose pharmacokinetics in male Swiss albino mice; format: in vivo
Experimental: (§2) Compounds were dosed to male Swiss albino mice to determine the pharmacokinetic profiles.
as §2

[4] = tested on: E. faecalis ATCC 51299; test: MIC by microbroth dilution, E. faecalis ATCC 51299; format: cell-based; details: Enterococcus faecalis, ATCC51299, Formula II compounds, read-out: Minimum Inhibitory Concentration (MIC) E. faecalis ATCC 51299
Experimental: (§3) Shown below are the microbiological activities of representative compounds of Formula I of the invention. The compounds were tested by the microbroth dilution method (National committee for Clinical Laboratory Standards, 2011, M07-08) and the Minimum Inhibitory Concentration (MIC) was determined.
(§4) Analysis of microbiological activity of compounds shown below are the microbiological activities of representative compounds of Formula II of the invention. The compounds were tested by the microbroth dilution method as per the reference in Example 1.

[5] = tested on: Acinetobacter BAA747; test: MIC by microbroth dilution, Acinetobacter BAA747; format: cell-based; details: Formula II compounds, read-out: Minimum Inhibitory Concentration (MIC) Acinetobacter BAA747
Experimental: as §3, §4

[6] = tested on: Pseudomonas ATCC 27853; test: MIC by microbroth dilution, Pseudomonas ATCC 27853; format: cell-based; details: ATCC27853, Formula II compounds, read-out: Minimum Inhibitory Concentration (MIC) Pseudomonas ATCC 27853
Experimental: as §3, §4

[7] = biological target: T1, ciprofloxacin resistant recombinant Gyrase protein (with mutation S83L) (Escherichia coli, UniProt P0AES4+P0AES6, S83L); test: Gyrase supercoiling assay with ciprofloxacin resistant Gyrase (S83L); format: biochemical; details: read-out: Target specificity: % inhibition of supercoiling activity
T1 construct: purchased Inspiralis
Experimental: The enzyme is incubated with the substrate (relaxed DNA) in the presence and absence of compounds for 1 hour at 37° C. and the DNA is run on a gel at low voltage for several hours. The amount of supercoiled DNA is quantified using DNA imaging and quantification software (Image Lab). The activity of the enzyme is proportional to the amount of supercoiled form detected.

[8] = tested on: A. baumannii; test: Mutation prevention concentration and mutation frequency against A. baumannii; format: cell-based
Experimental: (§5) The mutation prevention concentration or the concentration above which mutants are unlikely to be selected, was determined based on published protocols (Antimicrobial Agents and Chemotherapy, 45, 433-438, 2001).
The mutation prevention concentration and mutation frequencies were determined based on published protocols, the reference of which is provided in Example 4.

[9] = biological target: T2, hERG (Homo sapiens, UniProt Q12809); test: biochemical
Experimental: To test the ability of the VT-03 compounds to bind the hERG channel, membranes expressing the hERG channel were incubated with radiolabeled Astemizole and displacement of the labeled ligand in the presence of compounds was measured.
To test the ability of the VT-03 compounds (of Formula II) to bind the hERG channel, membranes expressing the hERG channel were incubated with radiolabeled Astemizole and displacement of the labeled ligand in the presence of compounds was measured.

[10] = tested on: Staphylococcus aureus (ATCC 29213); test: MIC by microbroth dilution, Staphylococcus aureus ATCC 29213; format: cell-based; details: ATCC29213
Experimental: (§6) Shown below are the microbiological activities of representative compounds of Formula I of the invention. The compounds were tested by the microbroth dilution method (National committee for Clinical Laboratory Standards, 2011, […]-08) and the Minimum Inhibitory Concentration (MIC) was determined.

[11] = tested on: Streptococcus pneumoniae (ATCC 6301); test: MIC by microbroth dilution, Streptococcus pneumoniae ATCC 6301; format: cell-based; details: ATCC6301
Experimental: as §6

[12] = tested on: Enterococcus faecalis (ATCC 29212); test: MIC by microbroth dilution, Enterococcus faecalis ATCC 29212; format: cell-based; details: ATCC29212
Experimental: as §6

[13] = tested on: Moraxella catarrhalis (ATCC 8176); test: MIC by microbroth dilution, Moraxella catarrhalis ATCC 8176; format: cell-based; details: ATCC8176
Experimental: as §6

[14] = tested on: K. pneumoniae (ATCC 700603); test: MIC by microbroth dilution, K. pneumoniae ATCC 700603; format: cell-based; details: Klebsiella pneumoniae, ATCC700603, Formula I compounds
In short: as §1

[15] = tested on: MRSA E9823; test: MIC against FQ resistant clinical strain MRSA E9823; format: cell-based; details: Staphylococcus aureus, fluoroquinolone resistant clinical strain, read-out: MIC against FQ resistant strains, MRSA E9823
Experimental: as §3
(§7) To test if compounds are able to overcome fluoroquinolone resistance, we have determined the MICS against Fluoroquinolone (FQ) resistant clinical strains of MRSA and E. coli.

[16] = tested on: MRSA E9749; test: MIC against FQ resistant clinical strain MRSA E9749; format: cell-based; details: Staphylococcus aureus, fluoroquinolone resistant clinical strain, read-out: MIC against FQ resistant strains, MRSA E9749
Experimental: as §3, §7

[17] = tested on: E. coli E1851; test: MIC against FQ resistant clinical strain E. coli E1851; format: cell-based; details: Escherichia coli, fluoroquinolone resistant clinical strain, read-out: MIC against FQ resistant strains, E. coli E1851
Experimental: (§8) The compounds were tested by the microbroth dilution method (National committee for Clinical Laboratory Standards, 2011, M07-08) and the Minimum Inhibitory Concentration (MIC) was determined.

[18] = tested on: E. coli U1306; test: MIC against FQ resistant clinical strain E. coli U1306; format: cell-based; details: Escherichia coli, fluoroquinolone resistant clinical strain, read-out: MIC against FQ resistant strains, E. coli U1306
Experimental: as §8

[19] = tested on: E. coli U5690; test: MIC against FQ resistant clinical strain E. coli U5690; format: cell-based; details: Escherichia coli, fluoroquinolone resistant clinical strain, read-out: MIC against FQ resistant strains, E. coli U5690
Experimental: as §8

[20] = tested on: E. coli 86; test: MIC against FQ resistant clinical strain E. coli 86; format: cell-based; details: Escherichia coli, fluoroquinolone resistant clinical strain, read-out: MIC against FQ resistant strains, E. coli 86
Experimental: as §8

[21] = biological target: T3, E. coli Gyrase (Escherichia coli, UniProt P0AES4+P0AES6); test: in vitro Gyrase supercoiling assay (Inspiralis kit); format: biochemical; details: 1 hour at 37° C., read-out: % inhibition of DNA supercoiling activity; for inhibition at 0.1 µM: 0.1 μM compound; for inhibition at 1 µM: 1 μM compound
T3 construct: purchased Inspiralis
Experimental: To test for target specificity, the activity of compounds was evaluated in an in vitro Gyrase assay using recombinant Gyrase protein as per the instructions of the assay kit (Inspiralis). The assay measures the ability of E. coli Gyrase to convert relaxed plasmid DNA into the supercoiled form. The enzyme is incubated with the substrate (relaxed DNA) in the presence and absence of compounds for 1 hour at 37° C. and the DNA is run on a gel at low voltage for several hours. The gel is then stained with Ethidium bromide and DNA in the different forms is quantified using DNA imaging and quantification software (Image Lab). The activity of the enzyme is proportional to the amount of supercoiled form detected.

[22] = tested on: MRSA 33591; test: Mutation prevention concentration against MRSA 33591; format: cell-based
Experimental: as §5

[23] = tested on: S. aureus (MRSA ATCC 33591); test: Systemic infection model in mice against S. aureus (MRSA ATCC 33591); format: in vivo; details: 10 mg/kg i.v. one hour after infection and again 4 hours later, 15× lethal dose MRSA ATCC33591 intraperitoneally
Experimental: In order to evaluate the in vivo efficacy of the scaffold, we tested representative compounds for activity in the systemic infection model in mice (Antimicrobial Agents and Chemotherapy, 47, 2507-2512, 2003). In this model, a 15× medial lethal dose of the bacteria (MRSA ATCC33591) is administered to mice intraperiotoneally. An hour later, the compound is administered i.v. and again 4 hours later. VT-03-00061, was efficacious with a 50% survival at a dose of 10 mg/kg in this model.

[24] = biological target: T2, hERG; details: BMCL, 21, 7489-7495, 2011; cited from earlier work
[25] = led to discontinuation from clinical development; North American Journal of Medical Science, 4, 537-47, 2012; cited from earlier work
[26] = ATCC33591, Formula I compounds, read-out: MIC Methicillin resistant Staphylococcus aureus (ATCC 33591)
[27] = ATCC25922, Formula I compounds, read-out: MIC E. coli (ATCC 25922)
[28] = mouse, in vivo, intravenous, 5 mg/kg b.w., single dose
[29] = mouse, in vivo, oral, 10 mg/kg b.w., single dose

Structure (SMILES)	IC50 [9]	MIC [10]	MIC [1, 26]	MIC [11]	MIC [12]	MIC [13]	MIC [2, 27]	MIC [14]	MIC [15]	MIC [16]	MIC [17]	MIC [18]	MIC [19]	MIC [20]	inhibition at 0.1 µM [21]	inhibition at 1 µM [21]	also measured
Cc1ccc(CNC2CCN(CCn3c(=O)cnc4ccc(F)cc43)CC2)cc1F [VT-03-00122]	> 30 µM	–	–	–	–	–	–	–	–	–	–	–	–	–	–	–	MIC ([1]; Formula II compounds, read-out: Minimum Inhibitory Concentration (MIC) MRSA ATCC 33591): 0.06 µg/mL (≈ 0.145 µM); MIC ([2]; ATCC25922, Formula II compounds, read-out: Minimum Inhibitory Concentration (MIC) E. coli ATCC 25922): 0.25 µg/mL (≈ 0.606 µM); AUC(0-t) ([3]; mouse, in vivo, iv, 5 mg/kg): 242 ng·h/mL; Cmax ([3]; mouse, in vivo, iv, 5 mg/kg): 381 ng/mL; Tmax ([3]; mouse, in vivo, iv, 5 mg/kg): 0.16 h; half-life ([3]; mouse, in vivo, iv, 5 mg/kg): 0.49 h; bioavailability ([3]; mouse, in vivo, oral 10 mg/kg vs i.v. 5 mg/kg): 7.69%; AUC(0-t) ([3]; mouse, in vivo, oral, 10 mg/kg): 37.3 ng·h/mL; Cmax ([3]; mouse, in vivo, oral, 10 mg/kg): 28.1 ng/mL; Tmax ([3]; mouse, in vivo, oral, 10 mg/kg): 1 h; MIC [4]: 0.5 µg/mL (≈ 1.21 µM); MIC [5]: 0.25 µg/mL (≈ 0.606 µM); MIC [6]: 16 µg/mL (≈ 38.8 µM); inhibition at 0.1 µM [7]: 95.5%; inhibition at 1 µM [7]: 97.1%; Mutation prevention concentration against A. baumannii [8]: 16 µg/mL; Mutation frequency ([8]; A. baumannii, at 8 μg/ml): 1.10 * 10^−8 at 8 μg/ml
COc1ccc2ncc(C#N)c(CCN3CCC(NCc4ccc(C)c([N+](=O)[O-])c4)CC3)c2c1 [VT-03-00061]	> 30 µM	0.015 µg/mL (≈ 0.0326 µM)	0.015 µg/mL (≈ 0.0326 µM)	0.015 µg/mL (≈ 0.0326 µM)	0.25 µg/mL (≈ 0.544 µM)	0.12 µg/mL (≈ 0.261 µM)	1 µg/mL (≈ 2.18 µM)	8 µg/mL (≈ 17.4 µM)	≤ 0.0075 µg/mL	0.015 µg/mL (≈ 0.0326 µM)	0.5 µg/mL (≈ 1.09 µM)	2 µg/mL (≈ 4.35 µM)	2 µg/mL (≈ 4.35 µM)	2 µg/mL (≈ 4.35 µM)	99.8%	99.7%	Mutation prevention concentration [22]: 0.12 µg/mL; oral bioavailability (in words) [3]: orally bioavailable; AUC(0-inf) [3, 28]: 368 ng·h/mL; Cmax [3, 28]: 400 ng/mL; half-life [3, 28]: 1.64 h; AUC(0-inf) [3, 29]: 104 ng·h/mL; Cmax [3, 29]: 51.5 ng/mL; half-life [3, 29]: 1.74 h; F % (Oral bioavaialbility) ([3]; oral 10 mg/kg vs intravenous 5 mg/kg): 11.51%; survival [23]: 50%
COc1ccc2ncc(C#N)c(CCN3CCC(NCc4cc5c(cn4)OCS5)CC3)c2c1 [GSK299423]	–	–	–	–	–	–	–	–	–	–	–	–	–	–	–	–	hERG binding liability (in words) [24]: serious hERG binding liability
COc1ccc2ncc(=O)n(CCN3CCC(NCc4csc([N+](=O)[O-])c4)CC3)c2c1 [VT-03-00057]	–	0.12 µg/mL (≈ 0.271 µM)	0.25 µg/mL (≈ 0.564 µM)	0.5 µg/mL (≈ 1.13 µM)	2 µg/mL (≈ 4.51 µM)	0.5 µg/mL (≈ 1.13 µM)	2 µg/mL (≈ 4.51 µM)	> 32 µg/mL	0.25 µg/mL (≈ 0.564 µM)	0.25 µg/mL (≈ 0.564 µM)	2 µg/mL (≈ 4.51 µM)	16 µg/mL (≈ 36.1 µM)	8 µg/mL (≈ 18 µM)	16 µg/mL (≈ 36.1 µM)	61.4%	90.6%	–
COc1ccc2ncc(F)c([C@@H](O)CC[C@@H]3CCN(CCSc4cccs4)C[C@@H]3C(=O)O)c2c1 [NXL-101]	–	–	–	–	–	–	–	–	–	–	–	–	–	–	–	–	QT prolongation (in words) [25]: causes QT prolongation

Reference: patent US20170197935A1, “INHIBITORS OF DNA GYRASE FOR THE TREATMENT OF BACTERIAL INFECTIONS” (Vitas Pharma Research Private Limited, priority 2012, published 2017)
